In the Kinase Knowledgebase extract (Sharma et al. 2016) one finds IC50 data, which are given here for 18 molecules.

Structures are written as SMILES.

The experiment addresses CDK2 (UniProt P24941). As to the kind of experiment: Enzyme Assay.
`Cc1cc2cnc(Nc3ccc(N4CCNCC4)cc3)nc2n(C2CCCC2)c1=O` came in with an IC50 of 59 nM.

Molecule `O=c1ccc2cnc(Nc3ccc(N4CCNCC4)cc3)nc2n1C1CCCCC1` returned a half-inhibitory concentration (IC50) of 119 nM.

Turning to `CC(=O)c1cc2cnc(Nc3ccc(N4CCNCC4)cc3)nc2n(C2CCCC2)c1=O`, the 50% inhibitory concentration (IC50) is 556 nM.

Consider `O=c1c(Cc2ccccc2)cc2cnc(Nc3ccc(N4CCNCC4)cc3)nc2n1C1CCCC1`, for which the IC50 was above 5000 nM.

Consider `CCOCCOc1cc2cnc(Nc3ccc(N4CCNCC4)cc3)nc2n(C2CCCC2)c1=O`, for which the IC50 was above 5000 nM.

`CCc1cc2cnc(Nc3ccc(N4CCNCC4)cc3)nc2n(C2CCCC2)c1=O` yielded a 50% inhibitory concentration (IC50) of 142 nM.

In turn, `CCc1cc2cnc(Nc3ccc(N4CCC(O)CC4)cc3)nc2n(C2CCCC2)c1=O` yielded an IC50 of 179 nM.

In turn, `CC(C)COc1cc2cnc(Nc3ccc(N4CCNCC4)cc3)nc2n(C2CCCC2)c1=O` had an IC50 of 3150 nM.

Molecule `Cc1c(Br)c(=O)n(C2CCCC2)c2nc(Nc3ccc(N4CCNC(C)(C)C4)cc3)ncc12` had an IC50 of 1330 nM.

The molecule `Nc1cc2cnc(Nc3ccc(N4CCNCC4)cc3)nc2n(C2CCCC2)c1=O` showed an IC50 of 95 nM.

As to `CCOC(=O)c1cc2cnc(Nc3ccc(N4CCNCC4)cc3)nc2n(C2CCCC2)c1=O`, the IC50 amounted to 5950 nM.

In turn, `Cc1c(Br)c(=O)n(C2CCCC2)c2nc(Nc3ccc(N4CC(C)NC(C)C4)cc3)ncc12` (stereo not drawn) registered an IC50 of 1860 nM.

For `CCOCCc1cc2cnc(Nc3ccc(N4CCNCC4)cc3)nc2n(C2CCCC2)c1=O`, the IC50 was 205 nM.

For the molecule `O=c1c(Br)cc2cnc(Nc3ccccc3)nc2n1C1CCCC1`, the IC50 amounted to 80 nM.

Regarding `CC(=O)c1c(C)c2cnc(Nc3ccc(N4CCNCC4)cc3)nc2n(C2CCCC2)c1=O`, the 50% inhibitory concentration (IC50) is 233 nM.

For the molecule `CC(C)n1c(=O)ccc2cnc(Nc3ccc(N4CCNCC4)cc3)nc21`, the IC50 is 84 nM.

The molecule `O=c1ccc2cnc(Nc3ccc(N4CCNCC4)cc3)nc2n1C1CCCC1` came in with an IC50 of 24 nM.

For `O=c1c(F)cc2cnc(Nc3ccc(N4CCNCC4)cc3)nc2n1C1CCCC1`, the IC50 was found to be 139 nM.

The term IC50 denotes the point on the concentration scale where inhibition reaches its midpoint. The low end stands for inhibition by little substance, the high end for a need for much substance.
